One data set has as its target SRC (Homo sapiens, UniProt P12931). In words: Kinase inhibitory activity, full kinase panel. It counts as biochemical. To be noted: single concentration of 1 μM, read-out: %Inhibitory ability. The protocol:
(§1) In order to measure inhibitory activity (% inhibitory ability) against a protein kinase with respect to the compound of the present invention, a biochemical assay was performed in a full kinase panel shown in the following Table 1. As an experimental compound, the (S)-5-((3-fluorophenyl)ethynyl)-N-(piperidin-3-yl)-3-ureidothiophene-2-carboxamide synthesized in Example 24 was used.

Another data set concerns the target SIK2 (Homo sapiens, UniProt Q9H0K1). In words: Kinase inhibitory activity, full kinase panel. It counts as biochemical. To be noted: single concentration of 1 μM, read-out: %Inhibitory ability. The protocol:
as §1

The next data set has as its target MAP4K2 (Homo sapiens, UniProt Q12851). In words: Kinase inhibitory activity, full kinase panel. To be noted: single concentration of 1 μM, read-out: %Inhibitory ability. It counts as biochemical. The protocol:
as §1

In the next data set the target is CHEK1 (Homo sapiens, UniProt O14757). In words: Kinase inhibitory activity, full kinase panel. The format is biochemical. To be noted: single concentration of 1 μM, read-out: %Inhibitory ability. The protocol:
as §1

A further data set concerns the target MEK3 (Homo sapiens, UniProt P46734). In words: Kinase inhibitory activity, full kinase panel. It counts as biochemical. The conditions noted are these: single concentration of 1 μM, read-out: %Inhibitory ability. The protocol:
as §1

A further data set deals with PDGFRB (Homo sapiens, UniProt P09619). In words: Kinase inhibitory activity, full kinase panel. The format is biochemical. The conditions noted are these: single concentration of 1 μM, read-out: %Inhibitory ability. The protocol: as §1
For the next data set, the target named is LOK (Homo sapiens, UniProt O94804). In words: Kinase inhibitory activity, full kinase panel. The format is biochemical. To be noted: single concentration of 1 μM, read-out: %Inhibitory ability. The protocol:
as §1

A further data set has as its target IRAK1 (Homo sapiens, UniProt P51617). In words: Kinase inhibitory activity, full kinase panel. It counts as biochemical. The conditions noted are these: single concentration of 1 μM, read-out: %Inhibitory ability. As for the experimental part:
as §1

The target of the next data set is SYK (Homo sapiens, UniProt P43405). Put plainly: Kinase inhibitory activity, full kinase panel. The format is biochemical. The conditions noted are these: single concentration of 1 μM, read-out: %Inhibitory ability. As for the experimental part:
as §1

Another data set deals with YANK2 (Homo sapiens, UniProt Q9NY57). In words: Kinase inhibitory activity, full kinase panel. The format is biochemical. To be noted: single concentration of 1 μM, read-out: %Inhibitory ability. The protocol: as §1
The next data set concerns the target RET (Homo sapiens, UniProt P07949). Put plainly: Kinase inhibitory activity, full kinase panel. The format is biochemical. To be noted: single concentration of 1 μM, read-out: %Inhibitory ability. As for the experimental part: as §1
The next data set addresses JAK2 (Homo sapiens, UniProt O60674). In words: Kinase inhibitory activity, full kinase panel. The conditions noted are these: single concentration of 1 μM, read-out: %Inhibitory ability. The format is biochemical. As for the experimental part:
as §1

The target of a further data set is BLK (Homo sapiens, UniProt P51451). In words: Kinase inhibitory activity, full kinase panel. It counts as biochemical. The conditions noted are these: single concentration of 1 μM, read-out: %Inhibitory ability. As for the experimental part: as §1
A further data set concerns the target EGFR(T790M) (Homo sapiens, UniProt P00533, T790M). In words: Kinase inhibitory activity, full kinase panel. The format is biochemical. To be noted: single concentration of 1 μM, read-out: %Inhibitory ability. The protocol:
as §1

In a further data set the target is MEK1 (Homo sapiens, UniProt Q02750). In words: Kinase inhibitory activity, full kinase panel. It counts as biochemical. To be noted: single concentration of 1 μM, read-out: %Inhibitory ability. The protocol: as §1
A further data set has as its target IRAK4 (Homo sapiens, UniProt Q9NWZ3). In words: Kinase inhibitory activity, full kinase panel. The format is biochemical. To be noted: single concentration of 1 μM, read-out: %Inhibitory ability. As for the experimental part:
as §1

In the next data set the target is PHKG1 (Homo sapiens, UniProt Q16816). In words: Kinase inhibitory activity, full kinase panel. The format is biochemical. To be noted: single concentration of 1 μM, read-out: %Inhibitory ability. The protocol:
as §1

In a further data set the target is DRAK2 (Homo sapiens, UniProt O94768). In words: Kinase inhibitory activity, full kinase panel. The format is biochemical. The conditions noted are these: single concentration of 1 μM, read-out: %Inhibitory ability. As for the experimental part: as §1
The next data set concerns the target DAPK1 (Homo sapiens, UniProt P53355). In words: Kinase inhibitory activity, full kinase panel. To be noted: single concentration of 1 μM, read-out: %Inhibitory ability. It counts as biochemical. As for the experimental part: as §1
The target of the next data set is DLK (Homo sapiens, UniProt Q12852). Put plainly: Kinase inhibitory activity, full kinase panel. The format is biochemical. To be noted: single concentration of 1 μM, read-out: %Inhibitory ability. As for the experimental part:
as §1

In a further data set the target is DAPK3 (Homo sapiens, UniProt O43293). In words: Kinase inhibitory activity, full kinase panel. It counts as biochemical. The conditions noted are these: single concentration of 1 μM, read-out: %Inhibitory ability. As for the experimental part: as §1
The target in a further data set is AURKB (Homo sapiens, UniProt Q96GD4). Put plainly: Kinase inhibitory activity, full kinase panel. It counts as biochemical. To be noted: single concentration of 1 μM, read-out: %Inhibitory ability. The protocol: as §1
A further data set has as its target TXK (Homo sapiens, UniProt P42681). Put plainly: Kinase inhibitory activity, full kinase panel. It counts as biochemical. The conditions noted are these: single concentration of 1 μM, read-out: %Inhibitory ability. As for the experimental part:
as §1

The next data set deals with DCAMKL1 (Homo sapiens, UniProt O15075). Put plainly: Kinase inhibitory activity, full kinase panel. The format is biochemical. To be noted: single concentration of 1 μM, read-out: %Inhibitory ability. As for the experimental part:
as §1

The target in a further data set is SIK (Homo sapiens, UniProt P57059). In words: Kinase inhibitory activity, full kinase panel. It counts as biochemical. To be noted: single concentration of 1 μM, read-out: %Inhibitory ability. As for the experimental part: as §1
Sequence of SIK (P57059 whole entry): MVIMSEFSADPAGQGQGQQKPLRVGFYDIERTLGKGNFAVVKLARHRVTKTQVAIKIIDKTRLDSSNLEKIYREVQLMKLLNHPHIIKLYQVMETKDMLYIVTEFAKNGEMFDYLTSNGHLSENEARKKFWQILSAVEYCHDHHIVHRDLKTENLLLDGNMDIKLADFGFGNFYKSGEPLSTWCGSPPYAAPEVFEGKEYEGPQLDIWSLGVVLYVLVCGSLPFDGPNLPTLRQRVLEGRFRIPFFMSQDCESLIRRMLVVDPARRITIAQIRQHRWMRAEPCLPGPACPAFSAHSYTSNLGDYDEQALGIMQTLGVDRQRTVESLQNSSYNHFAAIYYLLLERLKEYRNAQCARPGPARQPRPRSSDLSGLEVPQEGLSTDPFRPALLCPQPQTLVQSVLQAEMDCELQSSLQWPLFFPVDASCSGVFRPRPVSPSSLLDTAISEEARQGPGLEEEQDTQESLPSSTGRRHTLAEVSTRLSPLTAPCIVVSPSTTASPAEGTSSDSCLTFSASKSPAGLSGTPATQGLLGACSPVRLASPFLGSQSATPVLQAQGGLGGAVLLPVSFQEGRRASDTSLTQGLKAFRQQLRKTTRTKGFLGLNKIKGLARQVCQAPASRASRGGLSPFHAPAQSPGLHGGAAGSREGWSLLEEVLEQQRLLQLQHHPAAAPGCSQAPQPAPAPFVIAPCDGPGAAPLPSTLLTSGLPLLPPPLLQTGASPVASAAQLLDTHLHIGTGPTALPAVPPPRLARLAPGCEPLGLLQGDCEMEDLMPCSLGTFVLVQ
The next data set deals with JAK3 (Homo sapiens, UniProt P52333). Put plainly: Kinase inhibitory activity, full kinase panel. To be noted: single concentration of 1 μM, read-out: %Inhibitory ability. It counts as biochemical. The protocol:
as §1

For another data set, the target named is MAP3K3 (Homo sapiens, UniProt Q99759). Put plainly: Kinase inhibitory activity, full kinase panel. It counts as biochemical. To be noted: single concentration of 1 μM, read-out: %Inhibitory ability. As for the experimental part:
as §1

The target in the next data set is LCK (Homo sapiens, UniProt P06239). Put plainly: Kinase inhibitory activity, full kinase panel. The format is biochemical. To be noted: single concentration of 1 μM, read-out: %Inhibitory ability. The protocol:
as §1

Data set [1] has as its system FLT3-ITD-F691L-D835Y Ba/F3 cells. In words: In vivo bioluminescent efficacy study in mouse AML model. To be noted: for T/C, reduction of luminescence: compared with AC220-treated and vehicle control mice. The protocol:
Nude mice (5-6 weeks old)(Orient) were purchased and used after a week. Mice were anesthetized following IACUC approved animal protocol. FLT3-ITD F691L-D835Y, luc+ Ba/F3 cell (Established in-house) suspension (in 0.1 mL RPMI1640 (Welgene) of 1.0×10^6 cells) was injected into tail vein intravenously using a 29-G needle, and an tail mark was added to each animal for identification. After 6 days, the luminescence intensity was measured using IVIS (Perkin Elmer) to calculate the ROI intensity. Once ROI intensity reaches the study-desired minimum intensity (usually 2×106), mice were randomized into different treatment groups based on signal intensity.
(§2) Each compound was dissolved in NMP at 20× final concentration and diluted to 1× with the remaining vehicle components (vehicle: 5% NMP, 15% solutol (Sigma-aldrich), 30% PEG400 (Sigma-aldrich), 50% 0.05M citric acid (Sigma-aldrich)). Each compound solution was prepared freshly just before administration. Compounds were administered orally using a mouse sondae once a day, 0.1 mL per mouse. Mice were humanely euthanized if animals experience 20% body weight loss.
(§3) D-Luciferin (Promega) was dissolved in DPBS (Welgene) (without Ca2+ and Mg2+) at 15 mg/mL, and the stock solution was prepared after filtration using 0.22 μm syringe filters (BD). Luciferin solution (150 mg/kg in DPBS) was injected intraperitoneally into each mouse (200 μL/mouse). After 5 min, mice were anesthetized for 5 min using isoflurane (JW Pharma). Luminescence signal was read using IVIS200 (exposure time: auto, binning: 8, F/stop: 1). Signal intensity and body weights were measured every 3 days to monitor the ROI intensity and treatment-induced body weight loss. […] Data was analyzed using Living Image software (Caliper, PerkinElmer).
(§4) Statistical analysis of luminescence signal intensity, mouse body weight, and spleen/body weight ratio were evaluated using two-way ANOVA. Differences were considered statistically significant at p<0.005.

Data set [2] in a line: Body weight change during bioluminescent in vivo efficacy study. Also on record: species or system mouse. To be noted: po, qd. The protocol: as §2, §3, §4

The structures appear in SMILES notation.

Sequence of MEK3 (P46734 whole entry, species assumed): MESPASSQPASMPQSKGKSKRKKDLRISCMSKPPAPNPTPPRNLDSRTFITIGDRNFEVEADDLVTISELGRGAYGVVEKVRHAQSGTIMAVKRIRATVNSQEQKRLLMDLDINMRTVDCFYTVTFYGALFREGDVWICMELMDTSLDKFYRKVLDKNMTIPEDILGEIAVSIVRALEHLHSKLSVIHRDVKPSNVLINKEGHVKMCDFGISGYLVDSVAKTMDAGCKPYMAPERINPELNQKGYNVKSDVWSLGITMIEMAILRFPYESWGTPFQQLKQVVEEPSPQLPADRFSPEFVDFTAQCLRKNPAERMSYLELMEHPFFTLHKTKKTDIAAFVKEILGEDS
Sequence of IRAK4 (Q9NWZ3 whole entry, species assumed): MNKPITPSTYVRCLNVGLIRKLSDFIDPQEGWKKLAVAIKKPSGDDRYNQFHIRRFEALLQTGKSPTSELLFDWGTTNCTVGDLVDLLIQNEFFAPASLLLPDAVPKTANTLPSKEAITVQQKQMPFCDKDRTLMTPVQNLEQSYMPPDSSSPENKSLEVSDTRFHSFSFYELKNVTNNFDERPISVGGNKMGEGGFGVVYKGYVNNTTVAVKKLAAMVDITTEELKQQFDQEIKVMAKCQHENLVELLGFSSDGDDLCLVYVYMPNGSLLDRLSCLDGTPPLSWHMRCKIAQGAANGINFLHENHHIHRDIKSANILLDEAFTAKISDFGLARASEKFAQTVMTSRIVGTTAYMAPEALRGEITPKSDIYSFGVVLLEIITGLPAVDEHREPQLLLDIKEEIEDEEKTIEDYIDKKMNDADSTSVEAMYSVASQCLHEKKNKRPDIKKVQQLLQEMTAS
Sequence of RET (P07949 29-1114): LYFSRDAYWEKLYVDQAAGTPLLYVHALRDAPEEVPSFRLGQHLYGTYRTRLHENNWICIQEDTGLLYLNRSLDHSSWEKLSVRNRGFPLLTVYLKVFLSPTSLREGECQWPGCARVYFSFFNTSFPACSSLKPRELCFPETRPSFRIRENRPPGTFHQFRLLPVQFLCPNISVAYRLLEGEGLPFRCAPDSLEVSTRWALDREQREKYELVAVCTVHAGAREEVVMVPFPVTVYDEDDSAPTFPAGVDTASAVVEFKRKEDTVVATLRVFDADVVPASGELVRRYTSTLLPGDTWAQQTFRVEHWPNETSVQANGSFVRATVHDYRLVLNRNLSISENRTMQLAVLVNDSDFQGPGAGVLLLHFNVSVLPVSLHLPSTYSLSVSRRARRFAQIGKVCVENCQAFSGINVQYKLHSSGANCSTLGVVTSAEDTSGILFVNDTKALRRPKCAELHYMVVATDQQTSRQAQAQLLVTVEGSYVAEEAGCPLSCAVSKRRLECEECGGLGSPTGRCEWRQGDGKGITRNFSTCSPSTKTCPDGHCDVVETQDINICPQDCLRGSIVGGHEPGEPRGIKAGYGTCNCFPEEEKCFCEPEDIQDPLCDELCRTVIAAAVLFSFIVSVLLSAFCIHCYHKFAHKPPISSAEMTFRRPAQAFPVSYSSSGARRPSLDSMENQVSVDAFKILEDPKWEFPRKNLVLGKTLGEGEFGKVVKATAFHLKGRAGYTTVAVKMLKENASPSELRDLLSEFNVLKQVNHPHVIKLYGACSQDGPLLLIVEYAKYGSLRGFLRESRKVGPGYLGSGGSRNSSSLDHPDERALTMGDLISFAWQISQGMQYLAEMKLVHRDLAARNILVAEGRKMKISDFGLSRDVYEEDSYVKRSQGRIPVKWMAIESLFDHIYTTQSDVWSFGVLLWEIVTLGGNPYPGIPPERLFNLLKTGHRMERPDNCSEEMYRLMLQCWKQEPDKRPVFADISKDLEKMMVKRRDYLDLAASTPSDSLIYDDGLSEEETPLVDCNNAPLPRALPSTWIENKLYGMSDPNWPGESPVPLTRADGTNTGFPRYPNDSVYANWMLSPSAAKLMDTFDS
Sequence of CHEK1 (O14757 whole entry, species assumed): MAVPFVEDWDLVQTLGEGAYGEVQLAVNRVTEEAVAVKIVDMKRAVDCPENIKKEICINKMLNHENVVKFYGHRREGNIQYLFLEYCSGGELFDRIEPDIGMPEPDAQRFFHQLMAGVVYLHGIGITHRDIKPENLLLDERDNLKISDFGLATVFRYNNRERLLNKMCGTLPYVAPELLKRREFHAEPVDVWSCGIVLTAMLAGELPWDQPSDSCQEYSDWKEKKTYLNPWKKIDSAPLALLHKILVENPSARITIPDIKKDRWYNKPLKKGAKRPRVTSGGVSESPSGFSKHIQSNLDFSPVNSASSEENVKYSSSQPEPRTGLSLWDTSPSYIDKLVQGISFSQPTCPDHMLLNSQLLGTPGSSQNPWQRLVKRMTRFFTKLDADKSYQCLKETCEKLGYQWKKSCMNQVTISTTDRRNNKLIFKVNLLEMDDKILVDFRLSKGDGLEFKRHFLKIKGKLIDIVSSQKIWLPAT
Sequence of TXK (P42681 whole entry, species assumed): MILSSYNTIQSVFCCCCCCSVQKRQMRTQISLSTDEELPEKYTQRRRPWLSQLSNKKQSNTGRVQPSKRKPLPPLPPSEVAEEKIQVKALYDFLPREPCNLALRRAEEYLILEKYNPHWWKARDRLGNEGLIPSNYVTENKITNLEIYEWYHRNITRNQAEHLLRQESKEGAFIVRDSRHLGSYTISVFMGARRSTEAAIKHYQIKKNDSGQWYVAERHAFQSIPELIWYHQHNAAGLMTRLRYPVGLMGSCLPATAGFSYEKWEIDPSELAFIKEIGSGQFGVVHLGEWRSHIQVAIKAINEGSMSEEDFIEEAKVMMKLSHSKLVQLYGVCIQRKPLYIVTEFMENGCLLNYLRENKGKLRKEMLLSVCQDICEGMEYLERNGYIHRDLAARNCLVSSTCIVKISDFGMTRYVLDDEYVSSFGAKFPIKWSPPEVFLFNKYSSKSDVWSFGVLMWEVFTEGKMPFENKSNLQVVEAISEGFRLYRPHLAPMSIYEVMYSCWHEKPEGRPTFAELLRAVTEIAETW
Sequence of MAP3K3 (Q99759 whole entry, species assumed): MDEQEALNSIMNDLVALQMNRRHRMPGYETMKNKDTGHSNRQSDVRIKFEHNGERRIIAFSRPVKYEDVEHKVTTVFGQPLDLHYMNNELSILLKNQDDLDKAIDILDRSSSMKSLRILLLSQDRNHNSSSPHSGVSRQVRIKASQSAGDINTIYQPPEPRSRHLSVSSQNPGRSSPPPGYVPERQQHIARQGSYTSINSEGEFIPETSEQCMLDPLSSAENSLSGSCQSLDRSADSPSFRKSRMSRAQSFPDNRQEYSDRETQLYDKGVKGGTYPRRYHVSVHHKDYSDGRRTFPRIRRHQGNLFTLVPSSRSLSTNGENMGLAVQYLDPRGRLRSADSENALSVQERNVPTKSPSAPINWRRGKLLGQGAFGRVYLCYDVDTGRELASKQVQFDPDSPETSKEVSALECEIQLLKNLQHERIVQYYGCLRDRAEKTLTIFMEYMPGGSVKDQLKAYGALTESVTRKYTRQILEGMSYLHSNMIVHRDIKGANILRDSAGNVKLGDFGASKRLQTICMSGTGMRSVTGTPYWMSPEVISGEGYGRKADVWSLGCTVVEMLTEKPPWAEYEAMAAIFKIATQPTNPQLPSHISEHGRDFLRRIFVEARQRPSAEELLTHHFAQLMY
Sequence of LCK (P06239 whole entry, species assumed): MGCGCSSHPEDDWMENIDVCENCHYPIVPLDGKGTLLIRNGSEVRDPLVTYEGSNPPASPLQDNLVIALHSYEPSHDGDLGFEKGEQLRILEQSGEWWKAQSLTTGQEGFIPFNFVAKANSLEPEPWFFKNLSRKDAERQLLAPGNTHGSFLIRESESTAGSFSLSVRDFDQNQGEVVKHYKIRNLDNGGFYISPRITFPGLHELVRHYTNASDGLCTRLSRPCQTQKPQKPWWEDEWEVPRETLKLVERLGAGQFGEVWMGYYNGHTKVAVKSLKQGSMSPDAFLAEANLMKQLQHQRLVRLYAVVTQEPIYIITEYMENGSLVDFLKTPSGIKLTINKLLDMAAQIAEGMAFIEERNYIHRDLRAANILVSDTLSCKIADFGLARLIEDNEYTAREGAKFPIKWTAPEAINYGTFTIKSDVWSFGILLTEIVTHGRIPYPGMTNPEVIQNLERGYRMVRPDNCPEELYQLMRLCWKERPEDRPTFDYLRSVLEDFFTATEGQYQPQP

In the case of `Cc1ccc(C#Cc2cc(NC(N)=O)c(C(=O)N[C@H]3CCCNC3)s2)cc1` [Example 24, (S)—N-(piperidin-3-yl)-5-(p-tolylethynyl)-3-ureidothiophene-2-carboxamide], the inhibition at 1 µM on SRC came out at 98.1%; on SIK2, 73%; on MAP4K2 it was 92.7%; on CHEK1 it was 96.1%; at MEK3 it was 83%; at PDGFRB, 99.9%. Besides, the inhibition at 1 µM on LOK amounted to 71%; at IRAK1, 90.7%; on SYK it was 91.5%; at YANK2, 76%; on RET, 98.7%; on JAK2, 83%. The inhibition at 1 µM at BLK turned out to be 93.2%; at EGFR(T790M) it was 85%; at MEK1 it was 96.3%; on IRAK4, 99.8%; on PHKG1 it was 98.4%; on DRAK2, 96%. For the same compound, the inhibition at 1 µM at DAPK1 came to 94.4%; at DLK, 68%; at DAPK3, 84%; on AURKB, 66%; at TXK, 83%; on DCAMKL1, 80%. The inhibition at 1 µM on SIK is 80%; on JAK3, 91.1%; on MAP3K3, 94.6%; at LCK, 72%.
Turning to `NC(=O)Nc1cc(C#Cc2cccc(F)c2)sc1C(=O)N[C@H]1CCCNC1` [Example 22, (S)-5-((3-fluorophenyl)ethynyl)-N-(piperidin-3-yl)-3-ureidothiophene-2-carboxamide], the “T/C, reduction of luminescence” value was determined as 84.2% in data set [1] (15 mg/kg orally once per day) and 88.7% in [1] (30 mg/kg orally once per day). In data set [1] (2, 4, 7, 10 mg/kg, po, qd), the “tumor inhibition at low dosages (luminescence)” value was “dose-dependent tumor inhibition in vivo from a dosage of 2 mg/kg”. Moreover, the mouse body weight result in data set [2] is given as “did not alter the mouse body weight”.

The record behind these values is patent US10442796B2, “2,3,5-substituted thiophene compound as protein kinase inhibitor” (KOREA INSTITUTE OF SCIENCE AND TECHNOLOGY, priority 2016, dated 2019).
